We go through 17 molecules from paper PMC9067983, “Identification of highly selective type II kinase inhibitors with chiral peptidomimetic tails” (Journal of Enzyme Inhibition and Medicinal Chemistry, 2022).

Common to all, as to experiment: In vitro kinase assay (IC50)
Common to all, as to assay type: biochemical

Experiment [1] has as its target T1, Lck (Homo sapiens, UniProt P06239).
T1 construct: purchased Reaction Biology Corp
As to the method: (§1) Full panel kinase profiling and kinase IC50 measurement were performed by using Reaction Biology Corp. (San Diego, USA).

Experiment [2] concerns the target T2, c-Src (Homo sapiens, UniProt P12931).
T2 construct: purchased Reaction Biology Corp
As to the method: as §1

Experiment [3] concerns the target T3, p38a (Homo sapiens, UniProt Q16539).
T3 construct: purchased Reaction Biology Corp
As to the method: as §1

Experiment [4] addresses T4, Abl1 (Homo sapiens, UniProt P00519).
T4 construct: purchased Reaction Biology Corp
The protocol: as §1

Where a SMILES comes first, the peptide text is derived from it. [ ]: non-standard residue; d: D form. The star is where a group is joined. X1 = Cc1ccc(Nc2ncc3c(n2)N(C)C(=O)N(c2cc(C(=O)*)ccc2C)C3)cn1; Aib = CC(C)(N)C(=O)O

T4 sequence (P00519 whole entry): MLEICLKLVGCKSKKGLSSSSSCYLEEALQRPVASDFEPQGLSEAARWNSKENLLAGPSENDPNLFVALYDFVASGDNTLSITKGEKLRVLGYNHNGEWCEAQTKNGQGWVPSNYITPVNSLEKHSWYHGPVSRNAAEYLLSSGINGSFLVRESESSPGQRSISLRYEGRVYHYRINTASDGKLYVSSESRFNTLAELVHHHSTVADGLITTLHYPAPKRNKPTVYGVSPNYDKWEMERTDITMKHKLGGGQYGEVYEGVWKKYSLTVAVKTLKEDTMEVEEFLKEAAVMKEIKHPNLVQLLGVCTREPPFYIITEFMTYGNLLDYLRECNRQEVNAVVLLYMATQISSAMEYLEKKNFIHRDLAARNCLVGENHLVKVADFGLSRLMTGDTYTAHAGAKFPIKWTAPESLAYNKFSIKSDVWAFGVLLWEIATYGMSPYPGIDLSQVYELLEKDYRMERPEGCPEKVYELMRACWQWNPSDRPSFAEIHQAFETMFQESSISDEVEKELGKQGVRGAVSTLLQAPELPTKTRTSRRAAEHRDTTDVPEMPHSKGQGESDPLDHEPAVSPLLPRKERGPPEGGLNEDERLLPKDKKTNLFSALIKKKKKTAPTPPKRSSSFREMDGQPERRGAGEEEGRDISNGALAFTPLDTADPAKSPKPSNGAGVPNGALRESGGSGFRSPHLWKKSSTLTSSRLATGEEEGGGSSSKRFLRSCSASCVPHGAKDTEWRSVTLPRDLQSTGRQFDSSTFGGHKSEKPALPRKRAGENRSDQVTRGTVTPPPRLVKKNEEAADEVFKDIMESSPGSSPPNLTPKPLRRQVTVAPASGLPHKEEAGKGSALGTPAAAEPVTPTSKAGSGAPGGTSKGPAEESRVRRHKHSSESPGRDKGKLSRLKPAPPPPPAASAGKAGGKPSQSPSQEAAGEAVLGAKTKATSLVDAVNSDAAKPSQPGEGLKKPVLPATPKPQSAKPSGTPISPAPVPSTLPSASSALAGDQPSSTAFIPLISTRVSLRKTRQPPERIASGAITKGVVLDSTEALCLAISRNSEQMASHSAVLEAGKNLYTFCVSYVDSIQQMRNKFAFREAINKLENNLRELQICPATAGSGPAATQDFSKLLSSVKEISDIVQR
T3 sequence (Q16539 whole entry): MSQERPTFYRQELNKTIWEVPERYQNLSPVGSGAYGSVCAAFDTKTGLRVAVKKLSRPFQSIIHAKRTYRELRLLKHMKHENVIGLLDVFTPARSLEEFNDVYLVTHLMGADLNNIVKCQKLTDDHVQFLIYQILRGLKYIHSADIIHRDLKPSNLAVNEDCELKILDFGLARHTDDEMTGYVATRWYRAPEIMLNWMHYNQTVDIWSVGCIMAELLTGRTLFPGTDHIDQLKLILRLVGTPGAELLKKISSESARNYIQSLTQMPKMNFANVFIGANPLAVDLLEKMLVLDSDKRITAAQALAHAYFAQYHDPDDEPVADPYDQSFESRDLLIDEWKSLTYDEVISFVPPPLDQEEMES
T2 sequence (P12931 whole entry): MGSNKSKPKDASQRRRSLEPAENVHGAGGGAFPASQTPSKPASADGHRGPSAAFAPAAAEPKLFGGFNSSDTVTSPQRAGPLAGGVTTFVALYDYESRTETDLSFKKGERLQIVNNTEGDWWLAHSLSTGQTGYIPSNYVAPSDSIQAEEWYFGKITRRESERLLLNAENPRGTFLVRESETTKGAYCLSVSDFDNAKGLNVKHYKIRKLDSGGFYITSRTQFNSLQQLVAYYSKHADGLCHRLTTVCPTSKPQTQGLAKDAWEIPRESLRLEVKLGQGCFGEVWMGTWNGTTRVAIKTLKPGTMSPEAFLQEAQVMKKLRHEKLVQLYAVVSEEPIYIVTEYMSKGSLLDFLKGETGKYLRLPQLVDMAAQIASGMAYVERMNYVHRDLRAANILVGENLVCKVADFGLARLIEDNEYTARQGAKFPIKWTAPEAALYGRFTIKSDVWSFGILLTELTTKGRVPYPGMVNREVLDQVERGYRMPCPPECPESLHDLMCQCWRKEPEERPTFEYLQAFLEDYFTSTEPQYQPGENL
T1 sequence (P06239 whole entry): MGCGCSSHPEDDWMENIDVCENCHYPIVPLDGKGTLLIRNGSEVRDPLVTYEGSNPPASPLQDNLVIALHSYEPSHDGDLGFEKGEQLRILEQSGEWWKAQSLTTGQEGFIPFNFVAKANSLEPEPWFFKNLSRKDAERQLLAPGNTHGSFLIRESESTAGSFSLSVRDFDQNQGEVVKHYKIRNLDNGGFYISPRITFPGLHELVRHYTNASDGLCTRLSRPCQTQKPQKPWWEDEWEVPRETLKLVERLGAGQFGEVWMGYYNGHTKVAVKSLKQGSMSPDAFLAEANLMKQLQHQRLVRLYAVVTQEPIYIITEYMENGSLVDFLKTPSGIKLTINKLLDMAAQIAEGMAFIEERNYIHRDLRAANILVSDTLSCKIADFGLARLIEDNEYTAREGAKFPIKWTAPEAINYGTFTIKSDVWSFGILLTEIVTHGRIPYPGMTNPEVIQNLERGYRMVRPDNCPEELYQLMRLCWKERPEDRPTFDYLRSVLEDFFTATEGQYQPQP

With `Cc1ccc(Nc2ncc3c(n2)N(C)C(=O)N(c2cc(C(=O)N[C@H](C(=O)N4CCC[C@@H]4C(=O)NC(C)(C)C(=O)N[C@@H](CC(C)C)C(=O)N(C)C)C(C)C)ccc2C)C3)cn1` [7b, (R)-N-(1-(((S)-1-(dimethylamino)-4-methyl-1-oxopentan-2-yl)amino)-2-methyl-1-oxopropan-2-yl)-1-((4-methyl-3-(1-methyl-7-((6-methylpyridin-3-yl)amino)-2-oxo-1,4-dihydropyrimido[4,5-d]pyrimidin-3(2H)-yl)benzoyl)-L-valyl)pyrrolidine-2-carboxamide] (X1-V[dP][Aib]L-NMe2), the concentration for half-maximal inhibition (IC50) in experiment [1] stood at 174 nM; in experiment [2], 379 nM; in experiment [3], 2050 nM; in experiment [4] it was 317 nM.

`Cc1ccc(Nc2ncc3c(n2)N(C)C(=O)N(c2cc(C(=O)N[C@@H](Cc4ccccc4)C(=O)N4CCC[C@@H]4C(=O)N[C@H](C(=O)N[C@H](C)c4ccccc4)C(C)C)ccc2C)C3)cn1` [7w, (R)-N-((S)-3-methyl-1-oxo-1-(((R)-1-phenylethyl)amino)butan-2-yl)-1-((4-methyl-3-(1-methyl-7-((6-methylpyridin-3-yl)amino)-2-oxo-1,4-dihydropyrimido[4,5-d]pyrimidin-3(2H)-yl)benzoyl)-L-phenylalanyl)pyrrolidine-2-carboxamide]: the half-maximal inhibitory concentration (IC50) in experiment [1] came out at 129 nM; in experiment [2] it was 585 nM.

On to `Cc1ccc(Nc2ncc3c(n2)N(C)C(=O)N(c2cc(NC(=O)c4ccc5c(c4)NC(=O)[C@H](Cc4ccccc4)N=C5c4ccccc4)ccc2C)C3)cn1` [11a, (S)-3-benzyl-N-(4-methyl-3-(1-methyl-7-((6-methylpyridin-3-yl)amino)-2-oxo-1,4-dihydropyrimido[4,5-d]pyrimidin-3(2H)-yl)phenyl)-2-oxo-5-phenyl-2,3-dihydro-1H-benzo[e][1,4]diazepine-8-carboxamide], for which the IC50 is 8.5 nM in experiment [1], 20.4 nM in experiment [2], 1830 nM in experiment [3] and 189 nM in experiment [4].

For `Cc1ccc(Nc2ncc3c(n2)N(C)C(=O)N(c2cc(NC(=O)c4ccc5c(c4)NC(=O)[C@H](C)N=C5c4ccccc4)ccc2C)C3)cn1` [11c, (S)-3-methyl-N-(4-methyl-3-(1-methyl-7-((6-methylpyridin-3-yl)amino)-2-oxo-1,4-dihydropyrimido[4,5-d]pyrimidin-3(2H)-yl)phenyl)-2-oxo-5-phenyl-2,3-dihydro-1H-benzo[e][1,4]diazepine-8-carboxamide], the 50% inhibitory concentration (IC50) came out at 1.17 nM in experiment [1], 2.84 nM in experiment [2], 14.9 nM in experiment [3] and 4.64 nM in experiment [4].

`Cc1ccc(Nc2ncc3c(n2)N(C)C(=O)N(c2cc(NC(=O)c4ccc5c(c4)N(Cc4ccccc4)C(=O)[C@H](C)N=C5c4ccccc4)ccc2C)C3)cn1` [11d, (S)-1-benzyl-3-methyl-N-(4-methyl-3-(1-methyl-7-((6-methylpyridin-3-yl)amino)-2-oxo-1,4-dihydropyrimido[4,5-d]pyrimidin-3(2H)-yl)phenyl)-2-oxo-5-phenyl-2,3-dihydro-1H-benzo[e][1,4]diazepine-8-carboxamide]: the IC50 in experiment [1] came out at 3.42 nM; in experiment [2] it was 15.2 nM; in experiment [3], 101 nM; in experiment [4] it was 24.1 nM.

Regarding `Cc1ccc(Nc2ncc3c(n2)N(C)C(=O)N(c2cc(NC(=O)c4ccc5c(c4)NC(=O)[C@@H](Cc4ccccc4)N=C5c4ccccc4)ccc2C)C3)cn1` [11f, (R)-3-benzyl-N-(4-methyl-3-(1-methyl-7-((6-methylpyridin-3-yl)amino)-2-oxo-1,4-dihydropyrimido[4,5-d]pyrimidin-3(2H)-yl)phenyl)-2-oxo-5-phenyl-2,3-dihydro-1H-benzo[e][1,4]diazepine-8-carboxamide], the half-maximal inhibitory concentration (IC50) was found to be 18.7 nM in experiment [1] and 62.6 nM in experiment [2].

For the molecule `Cc1ccc(Nc2ncc3c(n2)N(C)C(=O)N(c2cc(NC(=O)c4ccc5c(c4)NC(=O)[C@H](Cc4ccc(F)cc4)N=C5c4ccccc4)ccc2C)C3)cn1` [11g, (S)-3-(4-fluorobenzyl)-N-(4-methyl-3-(1-methyl-7-((6-methylpyridin-3-yl)amino)-2-oxo-1,4-dihydropyrimido[4,5-d]pyrimidin-3(2H)-yl)phenyl)-2-oxo-5-phenyl-2,3-dihydro-1H-benzo[e][1,4]diazepine-8-carboxamide], the IC50 in experiment [1] is 42.1 nM; in experiment [2], 134 nM.

On to `Cc1ccc(Nc2ncc3c(n2)N(C)C(=O)N(c2cc(NC(=O)c4ccc5c(c4)N(C)C(=O)[C@H](CC(C)C)N=C5c4ccccc4)ccc2C)C3)cn1` [11h, (S)-3-isobutyl-1-methyl-N-(4-methyl-3-(1-methyl-7-((6-methylpyridin-3-yl)amino)-2-oxo-1,4-dihydropyrimido[4,5-d]pyrimidin-3(2H)-yl)phenyl)-2-oxo-5-phenyl-2,3-dihydro-1H-benzo[e][1,4]diazepine-8-carboxamide], for which the IC50 in experiment [1] is 24.6 nM; in experiment [2], 135 nM.

With `C=CCN1C(=O)[C@H](CC(C)C)N=C(c2ccccc2)c2ccc(C(=O)Nc3ccc(C)c(N4Cc5cnc(Nc6ccc(C)nc6)nc5N(C)C4=O)c3)cc21` [11i, (S)-1-allyl-3-isobutyl-N-(4-methyl-3-(1-methyl-7-((6-methylpyridin-3-yl)amino)-2-oxo-1,4-dihydropyrimido[4,5-d]pyrimidin-3(2H)-yl)phenyl)-2-oxo-5-phenyl-2,3-dihydro-1H-benzo[e][1,4]diazepine-8-carboxamide], the IC50 in experiment [1] turned out to be 49.3 nM; in experiment [2] it was 222 nM.

For `Cc1ccc(Nc2ncc3c(n2)N(C)C(=O)N(c2cc(NC(=O)c4ccc5c(c4)N(CC(C)C)C(=O)[C@H](CC(C)C)N=C5c4ccccc4)ccc2C)C3)cn1` [11j, (S)-1,3-diisobutyl-N-(4-methyl-3-(1-methyl-7-((6-methylpyridin-3-yl)amino)-2-oxo-1,4-dihydropyrimido[4,5-d]pyrimidin-3(2H)-yl)phenyl)-2-oxo-5-phenyl-2,3-dihydro-1H-benzo[e][1,4]diazepine-8-carboxamide], the 50% inhibitory concentration (IC50) was found to be 132 nM in experiment [1] and 461 nM in experiment [2].

Take `CC1=N[C@@H](Cc2ccccc2)C(=O)Nc2cc(C(=O)Nc3ccc(C)c(N4Cc5cnc(Nc6ccc(C)nc6)nc5N(C)C4=O)c3)ccc21` [11k, (S)-3-benzyl-5-methyl-N-(4-methyl-3-(1-methyl-7-((6-methylpyridin-3-yl)amino)-2-oxo-1,4-dihydropyrimido[4,5-d]pyrimidin-3(2H)-yl)phenyl)-2-oxo-2,3-dihydro-1H-benzo[e][1,4]diazepine-8-carboxamide]: the half-maximal inhibitory concentration (IC50) came to 3.57 nM in experiment [1] and 27.1 nM in experiment [2].

For the molecule `CC1=N[C@H](Cc2ccccc2)C(=O)Nc2cc(C(=O)Nc3ccc(C)c(N4Cc5cnc(Nc6ccc(C)nc6)nc5N(C)C4=O)c3)ccc21` [11l, (R)-3-benzyl-5-methyl-N-(4-methyl-3-(1-methyl-7-((6-methylpyridin-3-yl)amino)-2-oxo-1,4-dihydropyrimido[4,5-d]pyrimidin-3(2H)-yl)phenyl)-2-oxo-2,3-dihydro-1H-benzo[e][1,4]diazepine-8-carboxamide], the concentration for half-maximal inhibition (IC50) in experiment [1] was found to be 4.63 nM; in experiment [2], 19.6 nM.

For the molecule `CC1=N[C@@H](CC(C)C)C(=O)N(C)c2cc(C(=O)Nc3ccc(C)c(N4Cc5cnc(Nc6ccc(C)nc6)nc5N(C)C4=O)c3)ccc21` [11m, (S)-3-isobutyl-1,5-dimethyl-N-(4-methyl-3-(1-methyl-7-((6-methylpyridin-3-yl)amino)-2-oxo-1,4-dihydropyrimido[4,5-d]pyrimidin-3(2H)-yl)phenyl)-2-oxo-2,3-dihydro-1H-benzo[e][1,4]diazepine-8-carboxamide], the values for the IC50 in experiment [1] and in experiment [2] were 1.05 nM and 4.01 nM, respectively.

Regarding `COCCN1C(=O)[C@H](CC(C)C)N=C(c2ccccc2)c2ccc(C(=O)Nc3ccc(C)c(N4Cc5cnc(Nc6ccc(C)nc6)nc5N(C)C4=O)c3)cc21` [11n, (S)-3-isobutyl-1-(2-methoxyethyl)-N-(4-methyl-3-(1-methyl-7-((6-methylpyridin-3-yl)amino)-2-oxo-1,4-dihydropyrimido[4,5-d]pyrimidin-3(2H)-yl)phenyl)-2-oxo-5-phenyl-2,3-dihydro-1H-benzo[e][1,4]diazepine-8-carboxamide], the results for the IC50 in experiment [1] and in experiment [2] were 16 nM and 48.6 nM, respectively.

Consider `Cc1ccc(Nc2ncc3c(n2)N(C)C(=O)N(c2cc(NC(=O)c4ccc5c(c4)N(CC(=O)NCc4ccccc4)C(=O)[C@H](CC(C)C)N=C5c4ccccc4)ccc2C)C3)cn1` [11o, (S)-1-(2-(benzylamino)-2-oxoethyl)-3-isobutyl-N-(4-methyl-3-(1-methyl-7-((6-methylpyridin-3-yl)amino)-2-oxo-1,4-dihydropyrimido[4,5-d]pyrimidin-3(2H)-yl)phenyl)-2-oxo-5-phenyl-2,3-dihydro-1H-benzo[e][1,4]diazepine-8-carboxamide], for which the IC50 in experiment [1] worked out at 27.8 nM; in experiment [2], 87.5 nM.

Regarding `C=CCCC1=N[C@@H](CC(=O)Nc2ccc(C)c(N3Cc4cnc(Nc5ccc(C)nc5)nc4N(C)C3=O)c2)C(=O)N(C)c2ccccc21` [11p, (S)-2-(5-(but-3-en-1-yl)-1-methyl-2-oxo-2,3-dihydro-1H-benzo[e][1,4]diazepin-3-yl)-N-(4-methyl-3-(1-methyl-7-((6-methylpyridin-3-yl)amino)-2-oxo-1,4-dihydropyrimido[4,5-d]pyrimidin-3(2H)-yl)phenyl)acetamide], the values for the half-maximal inhibitory concentration (IC50) in experiment [1] and in experiment [2] were 3.8 nM and 6.14 nM, respectively.

Consider `C=CCCC1=N[C@@H](CC(=O)Nc2ccc(C)c(N3Cc4cnc(Nc5ccc(C)nc5)nc4N(C)C3=O)c2)C(=O)N(Cc2ccccc2)c2ccccc21` [11q, (S)-2-(1-benzyl-5-(but-3-en-1-yl)-2-oxo-2,3-dihydro-1H-benzo[e][1,4]diazepin-3-yl)-N-(4-methyl-3-(1-methyl-7-((6-methylpyridin-3-yl)amino)-2-oxo-1,4-dihydropyrimido[4,5-d]pyrimidin-3(2H)-yl)phenyl)acetamide], for which the IC50 in experiment [1] was 17.9 nM; in experiment [2], 24.8 nM.
